This is an account of results in patent US9480259B2, “Pyrazolopyrans having herbicidal and pharmaceutical properties” (BASF SE, priority 2012, dated 2016).

pEC50: −log10 of the molar value. A value given as a limit tells only on which side of the number the result lay.

Experiment [1] deals with SETFA, AMARE, POLCO, CHEAL, GALAP. The experiment can be described thus: Greenhouse herbicidal test, post-emergence, weed panel. It counts as in vivo. The following applies: application rate 1 kg/ha, scale 0 to 100. From the text: (§1) The seeds of the test plants were sown separately for each species. For the post-emergence treatment, the test plants were first grown to a height of 2 to 5 cm, depending on the plant habit, and only then treated with the active ingredients which had been suspended or emulsified in water. For this purpose, the test plants were either sown directly and grown in the same containers, or they were first grown separately as seedlings and transplanted into the test containers a few days prior to treatment. Depending on the species, the plants were kept at 10-25° C. or 20-35° C. The test period extended over 8 to 9 days. During this time, the plants were tended, and their response to the individual treatments was evaluated. Evaluation was carried out using a scale from 0 to 100. 100 means no emergence of the plants, or complete destruction of at least the aerial moieties, and 0 means no damage, or normal course of growth. A good herbicidal activity is given at values of at least 70 and a very good herbicidal activity is given at values of at least 85. The plants used in the greenhouse experiments belonged to the following species: [table]

Experiment [2] has as its system CHEAL (Chenopodium album). The experiment is described as follows: Greenhouse herbicidal test, post-emergence, CHEAL. It counts as in vivo. The following applies: application rate 1 kg/ha; for pest or weed control at 1000 g/ha: Chenopodium album, scale 0 to 100, read-out: herbicidal activity against CHEAL; for herbicidal activity against CHEAL: scale 0 to 100.
Text: as §1

Experiment [3] addresses Arabidopsis thaliana SHMT. The experiment can be described thus: SHMT activity assay (ED50 SHMT), coupled with N5,N10-CH2-THF dehydrogenase, NADH at 340 nm. The following applies: values given as upper bounds. It counts as biochemical. In short, it runs like this:
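His-tagged SHMT purified on Ni-NTA. NADH formation followed at 340 nm for 30 min; ED50 from inhibition of initial velocity.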

In experiment [4] the test system is POLCO (Poligonum convolvulus). The experiment is described as follows: Greenhouse herbicidal test, post-emergence, POLCO. Conditions: application rate 1 kg/ha; for pest or weed control at 1000 g/ha: Poligonum convolvulus, scale 0 to 100, read-out: herbicidal activity against POLCO; for herbicidal activity against POLCO: scale 0 to 100. The class given is in vivo.
Text: as §1

Experiment [5] deals with AMARE (Amaranthus retroflexus). The experiment can be described thus: Greenhouse herbicidal test, post-emergence, AMARE. The class given is in vivo. Conditions: application rate 1 kg/ha; for pest or weed control at 1000 g/ha: Amaranthus retroflexus, scale 0 to 100, read-out: herbicidal activity against AMARE; for herbicidal activity against AMARE: scale 0 to 100.
Text: as §1

The next experiment concerns SETFA (Setaria faberi). The experiment can be described thus: Greenhouse herbicidal test, post-emergence, SETFA. It counts as in vivo. The following applies: application rate 1 kg/ha, scale 0 to 100, read-out: herbicidal activity against SETFA.
Text: as §1

[6] abbreviates: Arabidopsis thaliana SHMT enzyme assay.
[7] abbreviates: Table 2, Arabidopsis thaliana SHMT enzyme assay.

Usually pEC50 stands for the negative decadic logarithm of the EC50, by convention in mol/L. As for `Cc1n[nH]c2c1C(c1cc(C#N)cc(C#N)c1)(C1(F)CCC1)C(C#N)=C(N)O2` (stereo not shown) [Compound 2.569], in experiment [1], the “herbicidal activity against at least three of the weeds SETFA, AMARE, POLCO, CHEAL, GALAP” value (shortened to “herbicidal activity against … GALAP”) was “good or very good”. In addition, the pest or weed control at 1000 g/ha in experiment [2], in experiment [4] and in experiment [5] was at least 85% throughout. The pEC50 in experiment [3] (Table 2) was over 7.00.
With `CCCC(=O)N(C)c1cc(C#N)cc(C2(C3CCC3)C(C#N)=C(N)Oc3[nH]nc(C)c32)c1` (stereo not shown) [Compound 2.612], the “herbicidal activity against … GALAP” value in experiment [1] is reported as “good or very good”. In experiment [3] (Table 2), the pEC50 is over 8.00.
For the molecule `Cc1n[nH]c2c1C(c1cc(C(N)=S)cc(C(F)(F)F)c1)(C1CCC1)C(C#N)=C(N)O2` (racemic) [Compound 2.409], the “herbicidal activity against … GALAP” value in experiment [1] is recorded as “good or very good”. The “herbicidal activity against CHEAL” value in experiment [2] is “very good (a very good herbicidal activity is given at values of at least 85)”. Moreover, in experiment [4], the “herbicidal activity against POLCO” value is “very good (a very good herbicidal activity is given at values of at least 85)”. The “herbicidal activity against AMARE” value in experiment [5] is listed as “good (A good herbicidal activity is given at values of at least 70)”.
Take `COCC(=O)N(C)c1cc(C#N)cc(C2(C(C)C)C(C#N)=C(N)Oc3[nH]nc(C)c32)c1` (stereo not shown) [Compound 2.688]: the “herbicidal activity against … GALAP” value in experiment [1] is given as “good or very good”. The pest or weed control at 1000 g/ha (in experiment [2]; in the experiment on SETFA (Setaria faberi); in experiment [5]) was at least 85% in each case. The molecule further had a pEC50 in experiment [3] (setting [6]) of over 8.00.
Regarding `Cc1n[nH]c2c1C(c1cc(-c3nnnn3C)cc(C(F)(F)F)c1)(C1CCC1)C(C#N)=C(N)O2` (racemic) [Compound 2.399], in experiment [1], the “herbicidal activity against … GALAP” value is listed as “good or very good”. Besides, the “herbicidal activity against CHEAL” value in experiment [2] is listed as “very good (a very good herbicidal activity is given at values of at least 85)”. Also, the “herbicidal activity against POLCO” value in experiment [4] is recorded as “good (A good herbicidal activity is given at values of at least 70)”. Besides, the “herbicidal activity against AMARE” value in experiment [5] is recorded as “very good (a very good herbicidal activity is given at values of at least 85)”.
Turning to `Cc1n[nH]c2c1C(c1cc(C#N)cc(C(F)(F)F)c1)(C1CCC1)C(C#N)=C(N)O2` (stereo not shown) [Compound 2.282], the “herbicidal activity against … GALAP” value in experiment [1] is listed as “good or very good”. The pest or weed control at 1000 g/ha in experiment [2], in experiment [4] and in experiment [5] was at least 85% throughout. This molecule had a pEC50 in experiment [3] (setting [7]) of over 8.00.
Consider `Cc1n[nH]c2c1C(c1cc(C#N)cc(N(C)C(=O)CCC#N)c1)(C(C)C)C(C#N)=C(N)O2` (stereo not shown) [Compound 2.663], for which, in experiment [1], the “herbicidal activity against … GALAP” value is given as “good or very good”. For the same molecule, the pest or weed control at 1000 g/ha was at least 70% in experiment [2], at least 85% in the experiment on SETFA (Setaria faberi) and at least 85% in experiment [5]. This molecule had a pEC50 in experiment [3] (setting [6]) of over 8.00.
Take `Cc1n[nH]c2c1C(c1cc(Br)cc(C#N)c1)(C1CCC1)C(C#N)=C(N)O2` (stereo not shown) [Compound 2.281]: the “herbicidal activity against … GALAP” value in experiment [1] was “good or very good”. Besides, the pest or weed control at 1000 g/ha in experiment [2], in experiment [4] and in experiment [5] was at least 85% in each case. Moreover, the pEC50 in experiment [3] (setting [7]) was over 8.00.
As for `CCC(=O)N(C)c1cc(C#N)cc(C2(C3CCC3)C(C#N)=C(N)Oc3[nH]nc(C)c32)c1` (stereo not shown) [Compound 2.611], the “herbicidal activity against … GALAP” value in experiment [1] is “good or very good”. In addition, the pest or weed control at 1000 g/ha in experiment [2], in experiment [4] and in experiment [5] was at least 85% in each case. In experiment [3] (Table 2), the pEC50 is over 8.00.
For `Cc1n[nH]c2c1C(c1cc(C#N)cc(N(C)C(=O)CC#N)c1)(C1CCC1)C(C#N)=C(N)O2` (stereo not shown) [Compound 2.635], the “herbicidal activity against … GALAP” value in experiment [1] is “good or very good”. The pest or weed control at 1000 g/ha in experiment [2] and in experiment [5] was at least 85% throughout. The same molecule gave a pEC50 in experiment [3] (Table 2) of over 8.00.
As for `COCC(=O)N(C)c1cc(C#N)cc(C2(C3CCC3)C(C#N)=C(N)Oc3[nH]nc(C)c32)c1` (stereo not shown) [Compound 2.615], in experiment [1], the “herbicidal activity against … GALAP” value was “good or very good”. Further, the pest or weed control at 1000 g/ha in experiment [2], in experiment [4] and in experiment [5] was at least 85% throughout. This molecule also gave a pEC50 in experiment [3] (Table 2) of over 8.00.
Turning to `Cc1n[nH]c2c1C(c1cc(Cl)cc(C#N)c1)(C1CCC1)C(C#N)=C(N)O2` (stereo not shown) [Compound 2.280], in experiment [1], the “herbicidal activity against … GALAP” value is “good or very good”. For the same molecule, the pest or weed control at 1000 g/ha in experiment [2], in experiment [4] and in experiment [5] was at least 85% in each case. Besides, the negative-log EC50 (pEC50) in experiment [3] (setting [7]) is over 8.00.
Regarding `Cc1n[nH]c2c1C(c1cc(C#N)cc(N(C)S(C)(=O)=O)c1)(C1CCC1)C(C#N)=C(N)O2` (stereo not shown) [Compound 2.617], in experiment [1], the “herbicidal activity against … GALAP” value is reported as “good or very good”. The pest or weed control at 1000 g/ha in experiment [2] and in experiment [5] was at least 85% throughout. For the same molecule, the pEC50 in experiment [3] (Table 2) was over 8.00.
Regarding `Cc1n[nH]c2c1C(c1cc(C#N)cc(C#N)c1)(C1CCC1)C(C#N)=C(N)O2` (stereo not shown) [Compound 2.283], in experiment [1], the “herbicidal activity against … GALAP” value is “good or very good”. Besides, the pest or weed control at 1000 g/ha in experiment [2], in experiment [4] and in experiment [5] was at least 85% each time. In experiment [3] (setting [7]), the pEC50 was over 7.00.
Consider `COCCOCC(=O)N(C)c1cc(C#N)cc(C2(C3CCC3)C(C#N)=C(N)Oc3[nH]nc(C)c32)c1` (stereo not shown) [Compound 2.616], for which the “herbicidal activity against … GALAP” value in experiment [1] was “good or very good”. Further, the pest or weed control at 1000 g/ha in experiment [2] and in experiment [5] was at least 85% throughout. This molecule also had a pEC50 in experiment [3] (Table 2) of over 8.00.
For the molecule `Cc1n[nH]c2c1C(c1cc(C(F)(F)F)cc(C(F)(F)F)c1)(C1(F)CC1)C(C#N)=C(N)O2` (stereo not shown) [Compound 2.247], the “herbicidal activity against … GALAP” value in experiment [1] is reported as “good or very good”. The pest or weed control at 1000 g/ha in experiment [2], in experiment [4] and in experiment [5] was at least 85% throughout. In experiment [3] (setting [7]), this molecule showed a pEC50 of over 8.00.
As to `Cc1n[nH]c2c1C(c1cc(C#N)cc(C#N)c1)(C(C)C)C(C#N)=C(N)O2` (stereo not shown) [Compound 2.335], the “herbicidal activity against … GALAP” value in experiment [1] is on record as “good or very good”. Besides, the pest or weed control at 1000 g/ha in experiment [2], in experiment [4] and in experiment [5] was at least 85% each time. In addition, the pEC50 in experiment [3] (setting [7]) is over 8.00.
Take `Cc1n[nH]c2c1C(c1cc(C#N)cc(C(F)(F)F)c1)(C1CC1)C(C#N)=C(N)O2` (stereo not shown) [Compound 2.362]: in experiment [1], the “herbicidal activity against … GALAP” value is recorded as “good or very good”. Also, the pest or weed control at 1000 g/ha in experiment [2], in experiment [4] and in experiment [5] was at least 85% each time. This molecule showed a pEC50 in experiment [3] (setting [7]) of over 8.00.
